pEC50: −log10 of the molar value.
What was measured:
Type in all cases: cell-based
[1] = system: NCI-H524 human small cell lung cancer cells; assay: H524 assay: inhibition of cell proliferation (CellTiter Glo); conditions: 2 h treatment, washout, additional 70 h incubation
In short: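 NCI-H524 cells were exposed for 2 h to NDC in an 11-point two-fold series starting at 1 uM. The drug was then washed out and cells grew a further 70 h. CellTiter Glo luminescence gave % inhibition versus untreated control, and IC50 came from a four-parameter nonlinear regression.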

[2] = target: T1, human somatostatin receptor subtype 2 (Homo sapiens, UniProt P30874); assay: Functional assay for SSTR2 agonists (HTRF cAMP); conditions: CHO-K1 cells stably expressing human SST2; NKH477-stimulated cAMP; 20 min at 37 C; read-out: hSST2 cAMP Avg EC50
T1 construct: expressed in transfected cells
T1 sequence (P30874 whole entry): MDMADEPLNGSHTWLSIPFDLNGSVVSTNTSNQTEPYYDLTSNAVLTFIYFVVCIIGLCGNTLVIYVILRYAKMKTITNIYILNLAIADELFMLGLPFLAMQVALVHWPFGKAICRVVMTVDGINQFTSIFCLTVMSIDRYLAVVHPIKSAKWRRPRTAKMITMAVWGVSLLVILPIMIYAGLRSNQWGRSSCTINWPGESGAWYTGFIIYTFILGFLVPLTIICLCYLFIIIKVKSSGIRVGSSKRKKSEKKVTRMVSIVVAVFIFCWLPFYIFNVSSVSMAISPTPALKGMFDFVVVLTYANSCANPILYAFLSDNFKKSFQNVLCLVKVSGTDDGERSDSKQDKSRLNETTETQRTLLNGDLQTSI
In short: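 CHO-K1 cells stably expressing human SSTR2 treated with compound (typically 0-10,000 nM final) for 20 min at 37 °C. Lysate cAMP measured by HTRF (665/620 nm ratio), converted via standard curve; EC50 from cAMP vs concentration.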

[3] = target: T2, SST2 (Homo sapiens, UniProt P30874); assay: PathHunter CHO-K1 SST2 Internalization Assay; conditions: PathHunter CHO-K1 SST2 cells; 90 min at 37 C; luminescence; read-out: Internalization EC50
T2 construct: host or cells: PathHunter CHO-K1 SST2 cells
T2 sequence (P30874 whole entry): as above
In short: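 CHO-K1 cells expressing human SST2, 2500 cells/well, grown 48 h, then exposed 90 min at 37 C to 11-point 1:3 NDC dilutions (final top 10 uM). Beta-Glo luminescence after 60 min at room temperature; four-parameter IC50, duplicate mean, background-corrected.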

SMILES	pEC50 [1]	pEC50 [2]	pEC50 [3]
CC[C@H](C)[C@@H]([C@@H](CC(=O)N1CCC[C@H]1[C@H](OC)[C@@H](C)C(=O)N[C@H](C)[C@@H](O)c1ccccc1)OC)N(C)C(=O)[C@@H](NC(=O)[C@H](C(C)C)N(C)C(=O)OCc1ccc(NC(=O)[C@H](CCCNC(N)=O)NC(=O)[C@@H](NC(=O)[C@@H](CS(=O)(=O)O)NC(=O)CCOCCC(=O)NCCNc2ncc(-c3cc(C)cc(F)c3)c(N3CCC(N)CC3)c2-c2nc3ccc(Cl)cc3[nH]2)C(C)C)cc1C(=O)NCCN)C(C)C [Compound 29]	8.59	10.12	8.07
CC[C@H](C)[C@@H]([C@@H](CC(=O)N1CCC[C@H]1[C@H](OC)[C@@H](C)C(=O)N[C@H](C)[C@@H](O)c1ccccc1)OC)N(C)C(=O)[C@@H](NC(=O)[C@H](C(C)C)N(C)C(=O)OCc1ccc(NC(=O)[C@H](C)NC(=O)[C@@H](NC(=O)CCOCCC(=O)NCCNc2ncc(-c3cc(C)cc(F)c3)c(N3CCC(N)CC3)c2-c2nc3ccc(Cl)cc3[nH]2)C(C)C)c(O[C@@H]2O[C@H](C(=O)NCC(=O)O)[C@@H](O)[C@H](O)[C@H]2O)c1)C(C)C [Compound 33]	8.15	9.82	8.60
CC[C@H](C)[C@@H]([C@@H](CC(=O)N1CCC[C@H]1[C@H](OC)[C@@H](C)C(=O)N[C@H](C)[C@@H](O)c1ccccc1)OC)N(C)C(=O)[C@@H](NC(=O)[C@H](C(C)C)N(C)C(=O)OCc1ccc(NC(=O)[C@H](C)NC(=O)[C@@H](NC(=O)CCOCCC(=O)NCCNc2ncc(-c3cc(C)cc(F)c3)c(N3CCC(N)CC3)c2-c2nc3ccc(Cl)cc3[nH]2)C(C)C)c(O[C@@H]2O[C@H](C(N)=O)[C@@H](O)[C@H](O)[C@H]2O)c1)C(C)C [Compound 34]	8.80	9.92	8.36
CC[C@H](C)[C@@H]([C@@H](CC(=O)N1CCC[C@H]1[C@H](OC)[C@@H](C)C(=O)N[C@H](C)[C@@H](O)c1ccccc1)OC)N(C)C(=O)[C@@H](NC(=O)[C@H](C(C)C)N(C)C(=O)OCc1ccc(NC(=O)[C@H](CCCNC(N)=O)NC(=O)[C@@H](NC(=O)C[C@@H](N)C(=O)NCCOCCC(=O)NCCNc2ncc(-c3cc(C)cc(F)c3)c(N3CCC(N)CC3)c2-c2nc3ccc(Cl)cc3[nH]2)C(C)C)c(O[C@@H]2O[C@H](C(=O)NCC(=O)O)[C@@H](O)[C@H](O)[C@H]2O)c1)C(C)C [Compound 35]	7.80	10.00	8.30
CC[C@H](C)[C@@H]([C@@H](CC(=O)N1CCC[C@H]1[C@H](OC)[C@@H](C)C(=O)N[C@H](C)[C@@H](O)c1ccccc1)OC)N(C)C(=O)[C@@H](NC(=O)[C@H](C(C)C)N(C)C(=O)OCc1ccc(NC(=O)[C@H](CCCNC(N)=O)NC(=O)[C@@H](NC(=O)CCOCCC(=O)NCCNc2ncc(-c3cc(C)cc(F)c3)c(N3CCC(N)CC3)c2-c2nc3ccc(Cl)cc3[nH]2)C(C)C)c(O[C@@H]2O[C@H](C(=O)NCCN)[C@@H](O)[C@H](O)[C@H]2O)c1)C(C)C [Compound 40]	8.77	9.70	8.06
CC[C@H](C)[C@@H]([C@@H](CC(=O)N1CCC[C@H]1[C@H](OC)[C@@H](C)C(=O)N[C@H](C)[C@@H](O)c1ccccc1)OC)N(C)C(=O)[C@@H](NC(=O)[C@H](C(C)C)N(C)C(=O)OCc1ccc(NC(=O)[C@H](C)NC(=O)[C@@H](NC(=O)[C@@H](CS(=O)(=O)O)NC(=O)CCOCCC(=O)NCCNc2ncc(-c3cc(C)cc(F)c3)c(N3CCC(N)CC3)c2-c2nc3ccc(Cl)cc3[nH]2)C(C)C)c(O[C@@H]2O[C@H](C(=O)NCCN)[C@@H](O)[C@H](O)[C@H]2O)c1)C(C)C [Compound 41]	7.40	10.09	8.05
CC[C@H](C)[C@@H]([C@@H](CC(=O)N1CCC[C@H]1[C@H](OC)[C@@H](C)C(=O)N[C@H](C)[C@@H](O)c1ccccc1)OC)N(C)C(=O)[C@@H](NC(=O)[C@H](C(C)C)N(C)C(=O)OCc1ccc(NC(=O)[C@H](C)NC(=O)[C@@H](NC(=O)CCOCCC(=O)N(C)CC(=O)NCCNc2ncc(-c3cc(C)cc(F)c3)c(N3CCC(N)CC3)c2-c2nc3ccc(Cl)cc3[nH]2)C(C)C)c(O[C@@H]2O[C@H](C(=O)NCC(=O)O)[C@@H](O)[C@H](O)[C@H]2O)c1)C(C)C [Compound 42]	7.60	10.00	8.42
CC[C@H](C)[C@@H]([C@@H](CC(=O)N1CCC[C@H]1[C@H](OC)[C@@H](C)C(=O)N[C@H](C)[C@@H](O)c1ccccc1)OC)N(C)C(=O)[C@@H](NC(=O)[C@H](C(C)C)N(C)C(=O)OCc1ccc(NC(=O)[C@H](CCCNC(N)=O)NC(=O)[C@@H](NC(=O)CCOCCC(=O)NCCNc2ncc(-c3cc(C)cc(F)c3)c(N3CCC(N)CC3)c2-c2cc3ccc(Cl)cc3[nH]2)C(C)C)c(O[C@@H]2C[C@H](C(=O)NCCN)[C@@H](O)[C@H](O)[C@H]2O)c1)C(C)C [Compound 43]	8.74	9.62	8.18
CC[C@H](C)[C@@H]([C@@H](CC(=O)N1CCC[C@H]1[C@H](OC)[C@@H](C)C(=O)N[C@H](C)[C@@H](O)c1ccccc1)OC)N(C)C(=O)[C@@H](NC(=O)[C@H](C(C)C)N(C)C(=O)OCc1ccc(NC(=O)[C@H](CCCNC(N)=O)NC(=O)[C@@H](NC(=O)CCOCCC(=O)NCCNc2ncc(-c3cc(C)cc(F)c3)c(N3CCC(N)CC3)c2-c2nc3cc(Cl)ccc3[nH]2)C(C)C)c(O[C@@H]2O[C@H](C(=O)NCC(=O)O)[C@@H](O)[C@H](O)[C@H]2O)c1)C(C)C [Compound 44]	8.32	10.07	8.35
CC[C@H](C)[C@@H]([C@@H](CC(=O)N1CCC[C@H]1[C@H](OC)[C@@H](C)C(=O)N[C@H](C)[C@@H](O)c1ccccc1)OC)N(C)C(=O)[C@@H](NC(=O)[C@H](C(C)C)N(C)C(=O)OCc1ccc(NC(=O)[C@H](CCCNC(N)=O)NC(=O)[C@@H](NC(=O)CCOCCC(=O)NCCNc2ncc(-c3cc(C)cc(F)c3)c(N3CCC(N)CC3)c2-c2nc3ccc(Cl)cc3[nH]2)C(C)C)c(O[C@@H]2O[C@H](C(=O)NCCC(=O)O)[C@@H](O)[C@H](O)[C@H]2O)c1)C(C)C [Compound 49]	8.03	9.85	8.47
CC[C@H](C)[C@@H]([C@@H](CC(=O)N1CCC[C@H]1[C@H](OC)[C@@H](C)C(=O)N[C@H](C)[C@@H](O)c1ccccc1)OC)N(C)C(=O)[C@@H](NC(=O)[C@H](C(C)C)N(C)C(=O)OCc1ccc(NC(=O)[C@H](C)NC(=O)[C@@H](NC(=O)CCOCCC(=O)N(C)CC(=O)NCCNc2ncc(-c3cc(C)cc(F)c3)c(N3CCC(N)CC3)c2-c2nc3ccc(Cl)cc3[nH]2)C(C)C)c(O[C@@H]2O[C@H](C(=O)NCS(=O)(=O)O)[C@@H](O)[C@H](O)[C@H]2O)c1)C(C)C [Compound 50]	7.44	9.89	8.17
CC[C@H](C)[C@@H]([C@@H](CC(=O)N1CCC[C@H]1[C@H](OC)[C@@H](C)C(=O)N[C@H](C)[C@@H](O)c1ccccc1)OC)N(C)C(=O)[C@@H](NC(=O)[C@H](C(C)C)N(C)C(=O)OCc1ccc(NC(=O)[C@H](C)NC(=O)[C@@H](NC(=O)CCOCCC(=O)N(C)CC(=O)NCCNc2ncc(-c3cc(C)cc(F)c3)c(N3CCC(N)CC3)c2-c2nc3ccc(Cl)cc3[nH]2)C(C)C)c(O[C@@H]2O[C@H](C(=O)NCCS(=O)(=O)O)[C@@H](O)[C@H](O)[C@H]2O)c1)C(C)C [Compound 51]	7.55	10.04	8.36
CC[C@H](C)[C@@H]([C@@H](CC(=O)N1CCC[C@H]1[C@H](OC)[C@@H](C)C(=O)N[C@H](C)[C@@H](O)c1ccccc1)OC)N(C)C(=O)[C@@H](NC(=O)[C@H](C(C)C)N(C)C(=O)OCc1ccc(NC(=O)[C@H](CCCNC(N)=O)NC(=O)[C@@H](NC(=O)CCOCCC(=O)NCCNc2ncc(-c3cc(C)cc(F)c3)c(N3CCC(N)CC3)c2-c2nc3ccc(Cl)cc3[nH]2)C(C)C)c(O[C@@H]2O[C@H](C(=O)NCCNC(=O)CCOCCOCCOCCOCCC(=O)O)[C@@H](O)[C@H](O)[C@H]2O)c1)C(C)C [Compound 52]	7.77	9.85	8.46
CC[C@H](C)[C@@H]([C@@H](CC(=O)N1CCC[C@H]1[C@H](OC)[C@@H](C)C(=O)N[C@H](C)[C@@H](O)c1ccccc1)OC)N(C)C(=O)[C@@H](NC(=O)[C@H](C(C)C)N(C)C(=O)OCc1ccc(NC(=O)[C@H](CCCNC(N)=O)NC(=O)[C@@H](NC(=O)CCOCCC(=O)NCCNc2ncc(-c3cc(C)cc(F)c3)c(N3CCC(N)CC3)c2-c2nc3ccc(Cl)cc3[nH]2)C(C)C)c(O[C@@H]2O[C@H](C(=O)N[C@@H](CCCCNC(=O)CCCCc3ccc(I)cc3)C(=O)O)[C@@H](O)[C@H](O)[C@H]2O)c1)C(C)C [Compound 54]	7.70	9.59	8.68
CC[C@H](C)[C@@H]([C@@H](CC(=O)N1CCC[C@H]1[C@H](OC)[C@@H](C)C(=O)N[C@H](C)[C@@H](O)c1ccccc1)OC)N(C)C(=O)[C@@H](NC(=O)[C@H](C(C)C)N(C)C(=O)OCc1ccc(NC(=O)[C@H](CCCNC(N)=O)NC(=O)[C@@H](NC(=O)CCOCCC(=O)NCCNc2ncc(-c3cc(C)cc(F)c3)c(N3CCC(N)CC3)c2-c2nc3ccc(Cl)cc3[nH]2)C(C)C)c(O[C@@H]2O[C@H](C(=O)NCCC(=O)N[C@@H](CCCCNC(=O)CCCCc3ccc(I)cc3)C(=O)O)[C@@H](O)[C@H](O)[C@H]2O)c1)C(C)C [Compound 55]	7.96	9.60	8.70
